Experimental data reported in US10137122B2, “Kinase inhibitors and methods of use thereof” (priority 2012, dated 2018).
“Also recorded” adds a separate entry of the source. Like-named read-outs stand apart in the source and are kept apart here. Each block holds one compound with its values, some of them ahead of it.

Tests used:
[1] = test system: β-catenin nuclear translocation in U2-OS cells; assay: β-Catenin nuclear localization assay; assay type: cell-based; conditions: read-out: beta-Catenin translocation EC50
Experimental: β-Catenin Nuclear Localization Assay
U2-OS cells stably expressing two complimentary β-galactosidase fragments (one part on β-Catenin and the other constitutively expressed in the cell nucleus) were maintained in DMEM F12 supplemented with 10% FBS. When β-catenin translocates to the nucleus, the complimentary fragments form a complete β-galactosidase, the amount of which is then quantified by β-galactosidase activity (DiscoveRx). Cells were seeded in a 384-well CulturPlate (Perkin Elmer, Boston, Mass.) with 10,000 per well in 20 μL DMEM F12 containing 10% FCS, 100 U/ml penicillin and 100 μg/mL streptomycin. After overnight incubation at 37° C., cells were stimulated with 100 nL test compound/well and then returned to the incubator for 6 h. Cells were disrupted using 12 μL substrate-containing lysis buffer from the PathHunter Detection Kit in the formulation specified by the supplier (DiscoveRx). Plates were incubated in the dark for 1 h at room temperature before measurement of β-galactosidase activity (luminescence) on an EnVision plate reader (PerkinElmer, Waltham, Mass.).

[2] = test system: TCF/LEF reporter in HEK293-pBARL cells; conditions: read-out: TCF/LEF EC50
Experimental: (§1) HEK293-pBARL cells were derived from HEK293 cells and they stably expressed a firefly-luciferase reporter gene driven by a promoter containing 12 copies of TCF/LEF binding sequences. These cells were maintained in DMEM and supplemented with 10% FBS and 1% penicillin-streptomycin (Invitrogen). Reporter gene assays were conducted in anti-biotic free media. […] These cells also contained a renilla-luciferase reporter gene driven by the ubiquitous EF1α promoter as a control. HEK293-pBarl reporter cell lines were seeded into 384-well culture plates (Corning) at 6000 cells/well. 24 hours after plating, cells were treated overnight with relevant compounds and assayed using DualGlo assay kit (Promega). Luminescent intensities were read by EnVision (PerkinElmer, Waltham, Mass.). Firefly luciferase intensity is normalized by renilla luciferase intensity.
(§2) Cells were cultured in 384 well plates to appropriate density (40 μl total plating volume). 24 hours after plating, cells were treated with 100 nl compounds. 24 hours after incubation with compounds (48 hours after plating), assay reagents were prepared by mixing Luciferase Assay solution with Luciferase substrate and Stop & Glo solution to Stop & Glo substrate (extra reagents can be aliquoted and frozen for future use and are stable for at least one freeze/thaw cycle). […] The plate was spun down and 10 minutes were allowed for signal stabilization. Luciferase signal on the Perkin Elmer EnVision using the following parameters: Distance between plate & detector (mm)=0.2; Measurement time(s)=0.1; Glow (CT2) correction factor=0. Once the initial data is secure, a volume of Stop & Glo was added equal to each well equal to the volume of Luciferase reagent added above (If 10 μl Luciferase Reagent was added, 10 μl Stop & Glo was also added). The plate was spun down and 10 minutes were allowed for signal stabilization. The plate was read on the EnVision using the same parameters detailed above.

[3] = target: CDK5/p25 (Homo sapiens (Human), UniProt Q00535)
Experimental: Biochemical characterization of these synthesized compounds were assayed against GSK3β and CDK5/p25, with CDK5/p25 serving as a counter target of GSK3β selectivity. […] The effects of these compounds on survival of SH-SY5Y pathophysiology cells were also monitored.

[4] = test system: TCF/LEF reporter in HEK293-pBARL cells; assay: cells; conditions: Homo sapiens
Experimental: as §1, §2

[5] = mouse plasma, 5 hours
[6] = test system: phospho-Tau (Ser199) in SH-SY5Y cells; assay: Tau phosphorylation assay (phospho-Tau Ser199 ELISA); assay type: cell-based, human; conditions: read-out: p-Tau Inhibition ELISA EC50 SH-SY5Y
Experimental: Tau Phosphorylation and Total Tau Assay
SH-SY5Y cells were maintained in DMEM supplemented with 10% heat-inactivated FBS and 1% penicillin-streptomycin (Invitrogen) unless otherwise stated. ELISA kits for phospho-Tau (Ser199) and total Tau detection were purchased from Invitrogen (KHB0041, and KHB7041 respectively). Briefly, SH-SY5Y cells were seeded at 50,000 cells/200 μL/well in 96 well plates and after overnight incubation, treated with various doses of chemical compounds at 0.2 μL/well. The next day cells were washed with PBS twice before being lysed in 100 μL Lysis buffer/well. 50 μL of cell lysate of each sample was transferred to an ELISA vial coated with the capture antibody, and the mixture was incubated at room temperature for 2 hours, before the supernatant was aspired, and each vial washed four times. 100 μL of detection antibody was then added to each well, incubated for 1 hour, and then washed four times. […] Data were scaled using the positive and neutral controls and fitted for IC50.
A standard protocol using an immunoassay kit to quantify total Tau protein and phospho-Tau (Ser199) protein in SH-SY5Y human neuroblastoma cells was employed. Human Tau (Total) ELISA kit (#KHB0041) and human phosphor-Tau (Ser199) ELISA kit were purchased from Invitrogen (#KHB7041)
50,000 cells were seeded in 200 μl per well in cell culture media (250,000 cells/ml). Cells were incubated overnight @37° C. Cells were induced with appropriate doses of inhibitors and incubated for approximately 24 hrs @37° C. Cell lysates were harvested by washing cells once with cold PBS and adding 100 μl cold lysis buffer and pipette up and down vigorously. Lysate was transferred to 96 well PCR plate and centrifuged at 4,000 rpm for 20 minutes at 4° C.
Well strips were warmed and inserted into the frame. 100μ of standard diluent buffer were loaded into ZERO wells, and 100 ul of each standard concentrations (both total Tau and pTau) were loaded into wells in duplicate. Samples were loaded to each well that would be analyzed for total Tau, 85 μl standard diluent buffer and 15 μl cell lysate were added. To each well that will be analyzed for pTau (Ser199) 50 μl standard diluent buffer+50 μl cell lysate were added. Plates were tapped gently on the side to mix. Certain wells were left empty for chromogen blank. Plates were covered and incubated for 2 hours at room temperature. Wells were aspirated 4 times (400 μl diluted wash buffer, left for 30 seconds, aspirated all wells; alternatively used automated plate washer and programmed in a 30 second hold between each cycle). 100 μl of detection antibody solution were added to each well except chromogen blanks. Anti-total Tau was added to wells being analyzed for total Tau, anti-pTau (Ser199) was added to wells being analyzed for pTau (Ser199), and plates were tapped gently on the side to mix. Plates were covered and incubated for 1 hour at room temperature, then wells were aspirated and washed 4 times as described above. 100 μl of anti-rabbit IgG HRP working solution (prepared ahead) were added to each well except chromogen blanks, and plates were covered and incubated for 30 minutes at room temperature, then wells were aspirated and washed 4 times as described above. 100 μl of stabilized chromogen were added to each well (the liquid turned blue). Plates were incubates for 30 minutes at room temperature in the dark, then 100 μl of stop solution were added to each well, and plates were tapped gently on the side to mix. Absorbance of each well was read at 450 nm (within 2 hours of adding stop solution).

[7] = target: GSK3α (Homo sapiens (Human), UniProt P49840)
Experimental: GSK3β Microfluidic Mobility-Shift Assay
Reactions were terminated by the addition of 10 mM EDTA. Substrate and product were separated electrophoretically and fluorescence intensity of the substrate and product was determined by Labchip EZ Reader II (Caliper Life Sciences, MA). The kinase activity was measured as percent conversion. The reactions were performed in duplicate for each sample. […] The results were analyzed by Genedata Assay Analyzer. The percent inhibition was plotted against the compound concentration and the IC50 value was determined from the logistic dose-response curve fitting.

[8] = test system: amphetamine-induced hyperactivity; assay: Amphetamine-induced hyperactivity (AIH) in vivo; conditions: mice, systemic i.p., vs vehicle
[9] = Pharmacokinetics and brain distribution in mice; assay type: in vivo; conditions: single i.p. dose 30 mg/kg, male C57BL/6 mice
[10] = test system: AML cell lines; assay: AML cell morphology, May-Grunwald Giemsa staining; assay type: cell-based; conditions: three days after treatment, vs vehicle
Experimental: Compound 70 Induces Morphological Changes in AML Cell Lines Consistent with Myeloid Differentiation
On day three post-chemical treatment, cytospin preparations were performed. Changes in cellular morphology were evaluated by May-Grunwald Giemsa staining (Sigma Aldrich). Images were acquired by light microscopy at 400× magnification.

[11] = test system: HL-60 and U937 cells; assay: GE-HTS 32-gene myeloid differentiation signature; assay type: cell-based; conditions: three days treatment
Experimental: HL-60 and U937 cells were treated for three days with compound 70 or vehicle. A 32-gene differentiation signature was quantified by the LMA/bead-based approach and a Weighted Summed Score (Differentiation Score) calculated for all genes was determined for each condition. Error bars denote the mean±SD of 8 replicates and statistical significance of the differences between these differentiation scores was derived using a one-way ANOVA with a Bonferroni correction.
Compound 70 Induces a Gene Expression Signature in AML Cell Lines Consistent with Myeloid Differentiation […]

[12] = mouse, microsomes, 1 h
[13] = HEK293, read-out: TCF/LEF EC50 (μM)

Chain of CDK5/p25 (Q00535 whole entry, species assumed): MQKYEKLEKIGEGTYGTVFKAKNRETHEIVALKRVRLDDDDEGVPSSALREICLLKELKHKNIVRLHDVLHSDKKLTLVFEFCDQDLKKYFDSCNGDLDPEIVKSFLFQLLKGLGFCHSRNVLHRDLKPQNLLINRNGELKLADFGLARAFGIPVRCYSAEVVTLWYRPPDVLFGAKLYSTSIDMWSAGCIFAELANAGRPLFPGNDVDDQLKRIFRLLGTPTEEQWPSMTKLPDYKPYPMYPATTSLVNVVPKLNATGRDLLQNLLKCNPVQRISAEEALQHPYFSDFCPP
Chain of CDK5/p25 (Q15078 99-307 partner, species assumed): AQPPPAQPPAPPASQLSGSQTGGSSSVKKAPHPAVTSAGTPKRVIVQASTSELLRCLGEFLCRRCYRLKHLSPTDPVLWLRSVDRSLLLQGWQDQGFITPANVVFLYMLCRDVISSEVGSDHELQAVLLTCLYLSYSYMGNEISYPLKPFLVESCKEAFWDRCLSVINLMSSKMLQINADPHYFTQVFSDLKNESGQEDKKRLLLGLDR
Chain of GSK3α (P49840 whole entry): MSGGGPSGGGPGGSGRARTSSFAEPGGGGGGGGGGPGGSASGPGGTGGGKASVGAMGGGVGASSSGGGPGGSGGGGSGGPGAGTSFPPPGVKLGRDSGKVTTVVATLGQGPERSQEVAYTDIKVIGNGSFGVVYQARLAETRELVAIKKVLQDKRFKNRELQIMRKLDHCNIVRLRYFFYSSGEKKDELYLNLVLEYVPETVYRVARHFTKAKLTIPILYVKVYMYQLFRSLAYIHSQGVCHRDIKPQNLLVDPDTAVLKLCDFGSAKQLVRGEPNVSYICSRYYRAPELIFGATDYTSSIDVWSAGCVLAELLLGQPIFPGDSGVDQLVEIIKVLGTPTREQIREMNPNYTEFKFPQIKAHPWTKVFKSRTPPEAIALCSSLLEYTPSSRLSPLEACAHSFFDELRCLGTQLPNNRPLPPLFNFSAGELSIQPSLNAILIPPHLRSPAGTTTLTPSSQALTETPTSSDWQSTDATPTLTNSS

SMILES: COc1ccccc1C1C2=C(CC(C)(C)CC2=O)Nc2n[nH]c(C(C)(C)C)c21 (stereo not shown) [Compound 50]
EC50 [1]: > 50 µM
EC50 [2]: > 25 µM

EC50 ([1]; Homo sapiens, U2OS): 10.8 µM
ADP Glo Assay GSK3β vs CDK5 fold selectivity [3]: 244X
SMILES: CC1(C)CC(=O)C2=C(C1)Nc1n[nH]c(C(F)(F)F)c1C2(C)c1ccccc1 (racemic) [Compound 68, 4,7,7-trimethyl-4-phenyl-3-(trifluoromethyl)-6,7,8,9-tetrahydro-2H-pyrazolo[3,4-b]quinolin-5(4H)-one]
EC50 [4, 13]: 7.77 µM

Plasma stability % remaining [5]: 96.6%
SMILES: CC1(C)CC(=O)C2=C(C1)Nc1n[nH]cc1[C@]2(C)c1ccccc1 (racemic) [Compound 108]

SMILES: COc1ccccc1C1C2=C(CC(C)(C)CC2=O)Nc2n[nH]c(C(C)C)c21 (stereo not shown) [Compound 49]
EC50 [1]: > 50 µM
ADP Glo Assay GSK3β vs CDK5 fold selectivity [3]: 14X
EC50 [2]: > 25 µM

SMILES: Cc1[nH]nc2c1C(c1cccc3nonc13)C1=C(CC(C)(C)CC1=O)N2 (stereo not shown) [Compound 41, 4-(benzo[c][1,2,5]oxadiazol-4-yl)-3,7,7-trimethyl-6,7,8,9-tetrahydro-2H-pyrazolo[3,4-b]quinolin-5(4H)-one]
EC50 ([6]; Homo sapiens, SH-SY5Y): 2.27 µM
EC50 ([1]; Homo sapiens, U2OS): 11.8 µM
IC50 [7]: < 100 nM
ADP Glo Assay GSK3β vs CDK5 fold selectivity [3]: 51X
EC50 [4, 13]: 6.7 µM

ADP Glo Assay GSK3β vs CDK5 fold selectivity [3]: 14X
SMILES: Cc1[nH]nc2c1C(c1ccccc1Br)C1=C(CC(C)(C)CC1=O)N2 (stereo not shown) [Compound 16]

SMILES: COc1ccccc1C1C2=C(CCCC2=O)Nc2n[nH]c(C)c21 (stereo not shown) [Compound 46]
EC50 [1]: > 50 µM
ADP Glo Assay GSK3β vs CDK5 fold selectivity [3]: 6X
EC50 [2]: > 25 µM

SMILES: Cc1[nH]nc2c1C(C)C1=C(CC(C)(C)CC1=O)N2 (stereo not shown) [Compound 42]
EC50 [1]: > 50 µM
ADP Glo Assay GSK3β vs CDK5 fold selectivity [3]: 23X
EC50 [2]: > 25 µM

ADP Glo Assay GSK3β vs CDK5 fold selectivity [3]: 34X
SMILES: COc1ccccc1C1C2=C(CC(C)(C)CC2=O)Nc2n[nH]cc21 (stereo not shown) [Compound 47]

EC50 ([6]; Homo sapiens, SH-SY5Y): 6.35 µM
Plasma stability % remaining [5]: 99.0%
SMILES: Cc1[nH]nc2c1C(C)(c1cccc(C#N)c1)C1=C(CC(C)(C)CC1=O)N2 (racemic) [Compound 95, 3-(1,6,6,9-tetramethyl-8-oxo-4,5,6,7,8,9-hexahydro-2H-pyrazolo[3,4-b]quinolin-9-yl)benzonitrile]

SMILES: Cc1[nH]nc2c1C(C1CC1)C1=C(CC(C)(C)CC1=O)N2 (stereo not shown) [Compound 43]
EC50 [6]: > 30 µM
EC50 [1]: > 50 µM
EC50 [2]: > 25 µM

SMILES: COc1ccccc1C1C2=C(CC3(CCCCC3)CC2=O)Nc2n[nH]c(C)c21 (stereo not shown) [Compound 56]
EC50 [1]: > 50 µM
EC50 [2]: > 25 µM

SMILES: CC1(C)CC(=O)C2=C(C1)Nc1n[nH]c(C(F)(F)F)c1C2c1ccccc1F (stereo not shown) [Compound 58]
EC50 [2]: > 25 µM

SMILES: CC1(C)CC(=O)C2=C(C1)Nc1n[nH]c(C(F)(F)F)c1C2c1cc(F)ccc1C(F)(F)F (stereo not shown) [Compound 64]
EC50 [2]: > 25 µM

EC50 ([6]; Homo sapiens, SH-SY5Y): 0.819 µM
pharmacokinetic profile (systemic exposure and brain distribution) compared to CHIR99021 [9]: improved pharmacokinetic profile
SMILES: CC1(C)CC(=O)C2=C(C1)Nc1n[nH]c(C(F)(F)F)c1C2(C)c1ccccc1 (single isomer, unassigned) [Compound 70, 4,7,7-trimethyl-4-phenyl-3-(trifluoromethyl)-6,7,8,9-tetrahydro-2H-pyrazolo[3,4-b]quinolin-5(4H)-one]
effect on amphetamine-induced hyperactivity, intraperitoneal injection [8]: attenuate amphetamine-induced hyperactivity
morphological evidence of AML differentiation [10]: induces morphological evidence of AML (acute myeloid leukemia) differentiation
morphological evidence of AML differentiation ([10]; listed as compound 70): demonstrated cellular differentiation
AML differentiation by GE-HTS signature [11]: induced a gene expression signature in AML cell lines consistent with myeloid differentiation; also recorded: induces AML (acute myeloid leukemia) differentiation by GE-HTS signature
EC50 [4, 13]: 1.86 µM

SMILES: COc1ccccc1C1C2=C(CCC(C)(C)C2=O)Nc2n[nH]c(C)c21 (stereo not shown) [Compound 45]
EC50 [1]: > 50 µM
ADP Glo Assay GSK3β vs CDK5 fold selectivity [3]: 20X
EC50 [2]: > 25 µM

SMILES: COc1ccccc1[C@H]1C2=C(CC(C)(C)CC2=O)Nc2n[nH]c(C(F)(F)F)c21 [Compound 55, (S)-4-(2-methoxyphenyl)-7,7-dimethyl-3-(trifluoromethyl)-6,7,8,9-tetrahydro-2H-pyrazolo[3,4-b]quinolin-5(4H)-one]
EC50 ([6]; Homo sapiens): > 30 µM
EC50 ([1]; Homo sapiens, U2OS): > 50 µM
EC50 ([4]; HEK293, read-out: TCF/LEF EC50 (μM), HEK293 reporter cells): > 25 µM

SMILES: Cc1[nH]nc2c1C(c1ccccc1)(C(F)(F)F)C1=C(CC(C)(C)CC1=O)N2 (stereo not shown) [Compound 83]
Microsomal stability 60 min [12]: 51.5%

SMILES: COc1ccccc1C1C2=C(CC(C)(C)CC2=O)Nc2n[nH]c(-c3ccccc3)c21 (stereo not shown) [Compound 51]
EC50 [1]: > 50 µM
EC50 [2]: > 25 µM

SMILES: Cc1[nH]nc2c1C(C1CCCCC1)C1=C(CC(C)(C)CC1=O)N2 (stereo not shown) [Compound 44]
EC50 [1]: > 50 µM
EC50 [2]: > 25 µM

EC50 ([6]; Homo sapiens, SH-SY5Y): 1.8 µM
EC50 ([1]; Homo sapiens, U2OS): 6.32 µM
SMILES: Cc1[nH]nc2c1[C@H](c1ccccc1C(F)(F)F)C1=C(CC(C)(C)CC1=O)N2 (stereo in doubt) [Compound 28, 3,7,7-trimethyl-4-(2-(trifluoromethyl)phenyl)-6,7,8,9-tetrahydro-2H-pyrazolo[3,4-b]quinolin-5(4H)-one]
EC50 [4, 13]: 4.8 µM

EC50 ([6]; Homo sapiens, SH-SY5Y): 4.8 µM
Plasma stability % remaining [5]: 90.5%
SMILES: CC1(C)CC(=O)C2=C(C1)Nc1n[nH]c(C3CC3)c1C2(C)c1ccccc1 (racemic) [Compound 113]

EC50 ([6]; Homo sapiens, SH-SY5Y): 4.24 µM
EC50 ([1]; Homo sapiens, U2OS): 12 µM
ADP Glo Assay GSK3β vs CDK5 fold selectivity [3]: 34X
SMILES: Cc1[nH]nc2c1C(c1ccccc1C(F)(F)F)C1=C(CC(C)(C)CC1=O)N2 (racemic) [Compound 27, 3,7,7-trimethyl-4-(2-(trifluoromethyl)phenyl)-6,7,8,9-tetrahydro-2H-pyrazolo[3,4-b]quinolin-5(4H)-one]
EC50 [4, 13]: 9.59 µM

ADP Glo Assay GSK3β vs CDK5 fold selectivity [3]: 35X
SMILES: CCc1[nH]nc2c1C(c1ccccc1OC)C1=C(CC(C)(C)CC1=O)N2 (stereo not shown) [Compound 48]

SMILES: CC1(C)CC(=O)C2=C(C1)Nc1n[nH]c(C(F)(F)F)c1C2c1ccc(F)cc1C(F)(F)F (stereo not shown) [Compound 65]
ADP Glo Assay GSK3β vs CDK5 fold selectivity [3]: 130X
EC50 [2]: > 25 µM

EC50 ([6]; Homo sapiens, SH-SY5Y): 4.68 µM
EC50 ([1]; Homo sapiens, U2OS): 11.2 µM
SMILES: Cc1[nH]nc2c1C(c1cccc(C(F)(F)F)c1)C1=C(CC(C)(C)CC1=O)N2 (stereo not shown) [Compound 30, 3,7,7-trimethyl-4-(3-(trifluoromethyl)phenyl)-6,7,8,9-tetrahydro-2H-pyrazolo[3,4-b]quinolin-5(4H)-one]
EC50 [4, 13]: 7.67 µM

SMILES: CC1(C)CC(=O)C2=C(C1)Nc1n[nH]c(C(F)(F)F)c1C2c1cc(F)ccc1F (stereo not shown) [Compound 60]
EC50 [2]: > 25 µM

SMILES: Cc1ccccc1C1C2=C(CC(C)(C)CC2=O)Nc2n[nH]c(C)c21 (stereo not shown) [Compound 17, 3,7,7-trimethyl-4-(o-tolyl)-6,7,8,9-tetrahydro-2H-pyrazolo[3,4-b]quinolin-5(4H)-one]
EC50 ([1]; Homo sapiens, U2OS): > 50 µM
IC50 [7]: < 100 nM
ADP Glo Assay GSK3β vs CDK5 fold selectivity [3]: 14X
EC50 [4, 13]: > 25 µM

SMILES: CC1(C)CC(=O)C2=C(C1)Nc1n[nH]c(C(F)(F)F)c1C2c1cc(F)ccc1OC(F)(F)F (stereo not shown) [Compound 61]
EC50 [2]: > 25 µM

EC50 ([6]; Homo sapiens, SH-SY5Y): 2.85 µM
EC50 ([1]; Homo sapiens, U2OS): 10.9 µM
SMILES: CSc1ccccc1C1C2=C(CC(C)(C)CC2=O)Nc2n[nH]c(C)c21 (stereo not shown) [Compound 25, 3,7,7-trimethyl-4-(2-(methylthio)phenyl)-6,7,8,9-tetrahydro-2H-pyrazolo[3,4-b]quinolin-5(4H)-one]
EC50 [4, 13]: 4.34 µM
